Experimental data as given in ChEMBL document CHEMBL1201862, “PubChem BioAssay data set” (2004).
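Test compounds were applied to cells in 96-well plates for 48 hours at 5 doses. GI50 = concentration required for 50% inhibition of growth.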 Active and inactive are the calls of the source. No stated cut-off is given here; in the data, active = GI50 up to about 1.1 µM and inactive = higher.

Legend:
Assay in all cases: NCI anticancer screen, dose series, 48 h
A549 = system: A549
ACHN = system: ACHN
DU-145 = system: DU-145
EKVX = system: EKVX
HOP-62 = system: HOP-62
HOP-92 = system: HOP-92
IGROV-1 = system: IGROV-1
MCF7 = system: MCF7
NCI-H460 = system: NCI-H460
NCI/ADR-RES = system: NCI/ADR-RES
OVCAR-3 = system: OVCAR-3
RPMI-8226 = system: RPMI-8226
SF-268 = system: SF-268
SK-MEL-5 = system: SK-MEL-5
SNB-19 = system: SNB-19
TK-10 = system: TK-10
U-251 = system: U-251
UO-31 = system: UO-31
SR = system: SR

Structure (SMILES): CC(=O)O[C@H]1C#C/C=C\C#CC[C@@H]2C(=O)N[C@@H]12
- GI50 (A549): 28.7 µM (inactive)
- GI50 (ACHN): 3.5 µM (inactive)
- GI50 (DU-145): 19.2 µM (inactive)
- GI50 (EKVX): > 100 µM (inactive)
- GI50 (HOP-62): 7.94 µM (inactive)
- GI50 (HOP-92): 46.2 µM (inactive)
- GI50 (IGROV-1): 22.8 µM (inactive)
- GI50 (MCF7): 4 µM (inactive)
- GI50 (NCI-H460): 0.0382 µM (active)
- GI50 (NCI/ADR-RES): 20.7 µM (inactive)
- GI50 (OVCAR-3): > 78.3 µM (inactive)
- GI50 (RPMI-8226): 21.3 µM (inactive)
- GI50 (SF-268): 18.6 µM (inactive)
- GI50 (SK-MEL-5): 29.9 µM (inactive)
- GI50 (SNB-19): 31.3 µM (inactive)
- GI50 (TK-10): > 59.7 µM (inactive)
- GI50 (U-251): 20.9 µM (inactive)
- GI50 (UO-31): 3.13 µM (inactive)

Structure (SMILES): OCC1C(O)C(O)[C@@H]2SCCN12 (stereo partly specified)
- GI50 (A549): > 100 µM (inactive)
- GI50 (ACHN): > 100 µM (inactive)
- GI50 (DU-145): > 100 µM (inactive)
- GI50 (EKVX): > 100 µM (inactive)
- GI50 (HOP-62): > 100 µM (inactive)
- GI50 (HOP-92): > 100 µM (inactive)
- GI50 (IGROV-1): > 100 µM (inactive)
- GI50 (NCI-H460): > 100 µM (inactive)
- GI50 (NCI/ADR-RES): > 100 µM (inactive)
- GI50 (OVCAR-3): > 100 µM (inactive)
- GI50 (RPMI-8226): > 100 µM (inactive)
- GI50 (SF-268): > 100 µM (inactive)
- GI50 (SK-MEL-5): > 100 µM (inactive)
- GI50 (SNB-19): > 100 µM (inactive)
- GI50 (SR): > 100 µM (inactive)
- GI50 (TK-10): > 100 µM (inactive)
- GI50 (U-251): > 100 µM (inactive)
- GI50 (UO-31): > 100 µM (inactive)

Structure (SMILES): O=C(CBr)N1CCC2(CC1)SSC1(CCN(C(=O)CBr)CC1)S2
- GI50 (A549): 1.98 µM (inactive)
- GI50 (ACHN): 1.54 µM (inactive)
- GI50 (HOP-62): 1.9 µM (inactive)
- GI50 (HOP-92): 2.1 µM (inactive)
- GI50 (NCI-H460): 1.81 µM (inactive)
- GI50 (NCI/ADR-RES): 1.97 µM (inactive)
- GI50 (RPMI-8226): 0.356 µM (active)
- GI50 (SNB-19): 1.58 µM (inactive)
- GI50 (SR): 0.178 µM (active)
- GI50 (U-251): 1.59 µM (inactive)
- GI50 (UO-31): 0.593 µM (active)

Structure (SMILES): COC1(OC)CCCCCCCCC(OC)(OC)CCCCCCCC1
- GI50 (A549): > 100 µM (inactive)
- GI50 (ACHN): > 100 µM (inactive)
- GI50 (DU-145): > 100 µM (inactive)
- GI50 (EKVX): > 100 µM (inactive)
- GI50 (HOP-62): > 100 µM (inactive)
- GI50 (HOP-92): > 100 µM (inactive)
- GI50 (IGROV-1): > 100 µM (inactive)
- GI50 (MCF7): > 100 µM (inactive)
- GI50 (NCI-H460): > 100 µM (inactive)
- GI50 (NCI/ADR-RES): > 100 µM (inactive)
- GI50 (OVCAR-3): > 100 µM (inactive)
- GI50 (SF-268): > 100 µM (inactive)
- GI50 (SK-MEL-5): > 100 µM (inactive)
- GI50 (SNB-19): > 100 µM (inactive)
- GI50 (SR): > 100 µM (inactive)
- GI50 (TK-10): > 100 µM (inactive)
- GI50 (U-251): > 100 µM (inactive)
- GI50 (UO-31): 0.553 µM (active)

Structure (SMILES): [O-][n+]1onc(-c2ccccc2)c1CN1CCOCC1
- GI50 (A549): > 100 µM (inactive)
- GI50 (ACHN): > 100 µM (inactive)
- GI50 (DU-145): > 100 µM (inactive)
- GI50 (EKVX): > 100 µM (inactive)
- GI50 (HOP-62): > 100 µM (inactive)
- GI50 (HOP-92): > 100 µM (inactive)
- GI50 (IGROV-1): 80 µM (inactive)
- GI50 (MCF7): > 100 µM (inactive)
- GI50 (NCI-H460): > 100 µM (inactive)
- GI50 (NCI/ADR-RES): > 100 µM (inactive)
- GI50 (OVCAR-3): 93.1 µM (inactive)
- GI50 (RPMI-8226): 76.6 µM (inactive)
- GI50 (SF-268): > 100 µM (inactive)
- GI50 (SK-MEL-5): > 100 µM (inactive)
- GI50 (SNB-19): > 100 µM (inactive)
- GI50 (TK-10): > 100 µM (inactive)
- GI50 (U-251): > 100 µM (inactive)
- GI50 (UO-31): 77.1 µM (inactive)

Structure (SMILES): CCCCCCc1cc2cc(C(=O)Nc3cccc(F)c3)c(=N)oc2cc1O
- GI50 (A549): 3.27 µM (inactive)
- GI50 (ACHN): 3.16 µM (inactive)
- GI50 (DU-145): 3.56 µM (inactive)
- GI50 (EKVX): 2.34 µM (inactive)
- GI50 (HOP-62): 4.57 µM (inactive)
- GI50 (IGROV-1): 1.42 µM (inactive)
- GI50 (MCF7): 3.19 µM (inactive)
- GI50 (NCI-H460): 3.19 µM (inactive)
- GI50 (NCI/ADR-RES): 2.35 µM (inactive)
- GI50 (OVCAR-3): 4.19 µM (inactive)
- GI50 (RPMI-8226): 1.62 µM (inactive)
- GI50 (SF-268): 2.32 µM (inactive)
- GI50 (SK-MEL-5): 1.4 µM (inactive)
- GI50 (SNB-19): 3.55 µM (inactive)
- GI50 (SR): 2.17 µM (inactive)
- GI50 (U-251): 1.97 µM (inactive)
- GI50 (UO-31): 2.73 µM (inactive)

Structure (SMILES): O=S(=O)(O)c1cccc2cccc(/N=N/c3c(O)ccc4ccccc34)c12
- GI50 (A549): > 100 µM (inactive)
- GI50 (ACHN): > 100 µM (inactive)
- GI50 (DU-145): > 100 µM (inactive)
- GI50 (EKVX): 92.3 µM (inactive)
- GI50 (HOP-62): > 100 µM (inactive)
- GI50 (HOP-92): > 100 µM (inactive)
- GI50 (IGROV-1): 31.9 µM (inactive)
- GI50 (MCF7): > 100 µM (inactive)
- GI50 (NCI-H460): > 100 µM (inactive)
- GI50 (NCI/ADR-RES): > 100 µM (inactive)
- GI50 (OVCAR-3): > 100 µM (inactive)
- GI50 (SF-268): > 100 µM (inactive)
- GI50 (SK-MEL-5): > 100 µM (inactive)
- GI50 (SNB-19): > 100 µM (inactive)
- GI50 (SR): > 100 µM (inactive)
- GI50 (TK-10): > 100 µM (inactive)
- GI50 (U-251): > 100 µM (inactive)
- GI50 (UO-31): > 100 µM (inactive)

Structure (SMILES): COC(=O)[C@]1(c2cc3ccccc3[nH]2)CC2CN(C(=O)OCc3ccccc3)C1CC2=O (stereo partly specified)
- GI50 (A549): 23.3 µM (inactive)
- GI50 (ACHN): 26.6 µM (inactive)
- GI50 (DU-145): 38.8 µM (inactive)
- GI50 (EKVX): 17.1 µM (inactive)
- GI50 (HOP-62): 43.2 µM (inactive)
- GI50 (HOP-92): 20.4 µM (inactive)
- GI50 (IGROV-1): 29.7 µM (inactive)
- GI50 (MCF7): 16.7 µM (inactive)
- GI50 (NCI-H460): 24.4 µM (inactive)
- GI50 (NCI/ADR-RES): 29.3 µM (inactive)
- GI50 (OVCAR-3): 28.8 µM (inactive)
- GI50 (RPMI-8226): 17.5 µM (inactive)
- GI50 (SF-268): 27.4 µM (inactive)
- GI50 (SK-MEL-5): 17.1 µM (inactive)
- GI50 (SNB-19): 59.7 µM (inactive)
- GI50 (TK-10): 53.5 µM (inactive)
- GI50 (U-251): 15.8 µM (inactive)
- GI50 (UO-31): 21.3 µM (inactive)
